This is an account of results in ChEMBL document CHEMBL1152324, “Protolimonoids from Melia toosendan” (J Nat Prod, 2009).

Each structure is given as a SMILES string. Where only a bound is given, the exact number is not on record here.

What all share (type): functional, cell-based
The test system of one assay is HL-60. Kind of assay: Cytotoxicity against human HL60 cells by SRB assay.
The test system of another assay is HT-29. Kind of assay: Cytotoxicity against human HT-29 cells by SRB assay. (The SRB assay estimates cell density from bound dye.)
Another assay deals with MCF7. Nature of the assay: Cytotoxicity against human MCF7 cells by SRB assay.

For orientation: IC50 means the midpoint of a concentration-inhibition curve. A lower IC50 goes with greater potency.

For `COc1cccc2c1C(=O)c1c(O)c3c(c(O)c1C2=O)C[C@@](O)(C(=O)CO)C[C@@H]3O[C@H]1C[C@H](N)[C@H](O)[C@H](C)O1` [DOXORUBICIN], the IC50 turned out to be 0.016 µM in the assay with HL-60, 0.33 µM with HT-29 and 0.12 µM in the assay with MCF7.
The corresponding values for `CC(C)=CCCC(C(=O)O)[C@@H]1[C@@H](O)C[C@]2(C)C3=CC[C@H]4C(C)(C)[C@@H](O)CC[C@]4(C)[C@H]3CC[C@@]12C` (some centres not stated) [TOOSENDANIC ACID A] are below 10 µM, below 10 µM and below 10 µM.
The matching figures for `CC(C)=CCCC(C(=O)O)[C@@H]1[C@@H](O)C[C@]2(C)C3=CC[C@H]4C(C)(C)[C@H](O)CC[C@]4(C)[C@H]3CC[C@@]12C` (some centres not stated) [TOOSENDANIC ACID B]: below 10 µM, below 10 µM and below 10 µM.
As to `CC(C)(O)[C@@H]1CC[C@H]([C@@H]2[C@@H](O)C[C@]3(C)C4=CC[C@H]5C(C)(C)C(=O)CC[C@]5(C)[C@H]4CC[C@@]23C)[C@H]1O` [TOOSENDANONE A], the IC50 in the assay on HL-60, in the assay with HT-29 and in the assay on MCF7 was below 10 µM each time.
